Test results published in patent publication US20160000883A1, “COMBINATION OF ACYLATED GLUCAGON ANALOGUES WITH INSULIN ANALOGUES” (ZEALAND PHARMA A/S, priority 2011, published 2016).
Numbered stars: 1 amine (or outer) side, 2 acyl side, 3 side chain; on linkers, the order of the positions; unused ones are H or OH. Square brackets hold non-standard residues; d marks the D form. Side chains are listed from the residue outwards. * marks the point of attachment. γGlu = O=C(O)[C@H](CCC(=O)[*:2])N[*:1]; Palmitoyl = CCCCCCCCCCCCCCCC(=O)*; Aib = CC(C)(N)C(=O)O

What was measured:
[1] = tested on: db/db (BKS.Cg-m+/+Lepr^db/J) female mice; assay: 21-day s.c. treatment of db/db mice: body weight, food and water intake; assay type: in vivo; conditions: 21 days, bi-daily s.c., Lantus 3 U, Levemir 6 U, Compound X 10 nmol/kg, vs. vehicle (FIG. 1)
Description: Eighty (80) db/db (BKS.Cg-m+/+Lepr^db/J) female mice aged 7 weeks were obtained from Charles River, US. The mice were acclimatized in their new environment and allowed free access to normal chow (Altromin 1324, Brogaarden A/S, Gentofte, Denmark) and domestic quality tap water added citric acid to pH ˜3.6, except as indicated. The mice were group-housed with 3-4 mice per cage in a light-, temperature-, and humidity-controlled room (12-hour light: 12-hour dark cycle, with lights on at 06.00 AM to 06.00 PM hour; 24° C.; 50% relative humidity).
Prior to treatment, in weeks 1-3, a tail-blood sample for the determination of blood glucose was obtained on non-fasted animals to determine diabetic state and to identify outliers, which were excluded. The inclusion criteria of BG>16 mM glucose was applied.
Stratification of the animals was based on HbA1c levels (primary) and BW as measured at baseline (day −4). Thus, on day −3, the 66 mice were selected based on the pre-screen and baseline measurements into 6 study groups of 11 mice (3-4 mice/cage).
All mice were mock treated for at 3 days (BID, SC, 100 μl vehicle) to acclimatize the animals to handling and injections. Dosing (day 0, mice at age 12 weeks as in pilot study) started in the afternoon on that day, and the mice were treated twice daily with 2 SC injections according to Table 1 for a total of 21 days (4 injections per day). Thus, last day of dosing was day 21 in the morning. The daily injections took place between 7:00 and 8:00 and between 14:00 and 15:00 with fresh solutions prepared in the morning (only Compound X). […]
Dosing solutions of Compound X for the weekend were prepared the Friday before. […] Throughout the study (day −2 to day 21) body weights (8W) were recorded daily and used to administer the body weight-corrected doses of substances. Food and water intake (FI, WI) was measured every day (day −3 to day 21) as cage averages.
In Vivo: female db/db mice aged 10-11 weeks were treated for 21 days with bi-daily s.c. injections. […] Fasting blood glucose (BG) was measured before and after 21 days of treatment.

[2] = tested on: db/db (BKS.Cg-m+/+Lepr^db/J) female mice; assay: 21-day s.c. treatment of db/db mice: fasting blood glucose (delta-BG); assay type: in vivo; conditions: fasted female db/db mice, over 21 days of bi-daily s.c. treatment; Lantus 3 U, Levemir 6 U, Compound X 10 nmol/kg; average +/- SEM (FIG. 4)
Description: All mice were mock treated for at 3 days (BID, SC, 100 μl vehicle) to acclimatize the animals to handling and injections. Dosing (day 0, mice at age 12 weeks as in pilot study) started in the afternoon on that day, and the mice were treated twice daily with 2 SC injections according to Table 1 for a total of 21 days (4 injections per day). Thus, last day of dosing was day 21 in the morning. The daily injections took place between 7:00 and 8:00 and between 14:00 and 15:00 with fresh solutions prepared in the morning (only Compound X). Insulin was kept in the refrigerator. […]
On day 21 (before termination) in 8 h fasted mice a blood sample (350 μl) was taken, and BG, HbA1c, and p-insulin were measured as described above. […]
The whole blood glucose level was analyzed on tail-blood samples by the immobilized glucose oxidase method (Elite Auto analyser, Bayer, Denmark) following the manufacturer's protocol. Blood samples (sample size 30 μl) were analyzed for HbA1c using the Cobas c111 analyzer (Roche Diagnostics, Mannheim, Germany) in single determinations by Department of Molecular Pharmacology. Plasma (sample size 5 μl) and insulin content was measured using an insulin alpha-LISA assay in triplicate by Department of Molecular Pharmacology. A measure of peptide exposure in plasma (sample size 100 μl) will be determined by the Department of Bioanalysis and Pharmacokinetics. […]

Substance | body weight (BW) change [1] | delta-BG (delta-Blood Glucose) [2] [mM]
H-H-Aib-QGTFTSDYSKYLDS-K(Hexadecanoyl-isoGlu)-AAHDFVEWLLSA-NH2 (H-H[Aib]QGTFTSDYSKYLDSK([γGlu-Palmitoyl])AAHDFVEWLLSA-NH2; SMILES CCCCCCCCCCCCCCCC(=O)N[C@@H](CCC(=O)NCCCC[C@H](NC(=O)[C@H](CO)NC(=O)[C@H](CC(=O)O)NC(=O)[C@H](CC(C)C)NC(=O)[C@H](Cc1ccc(O)cc1)NC(=O)[C@H](CCCCN)NC(=O)[C@H](CO)NC(=O)[C@H](Cc1ccc(O)cc1)NC(=O)[C@H](CC(=O)O)NC(=O)[C@H](CO)NC(=O)[C@@H](NC(=O)[C@H](Cc1ccccc1)NC(=O)[C@@H](NC(=O)CNC(=O)[C@H](CCC(N)=O)NC(=O)C(C)(C)NC(=O)[C@@H](N)Cc1c[nH]cn1)[C@@H](C)O)[C@@H](C)O)C(=O)N[C@@H](C)C(=O)N[C@@H](C)C(=O)N[C@@H](Cc1c[nH]cn1)C(=O)N[C@@H](CC(=O)O)C(=O)N[C@@H](Cc1ccccc1)C(=O)N[C@H](C(=O)N[C@@H](CCC(=O)O)C(=O)N[C@@H](Cc1c[nH]c2ccccc12)C(=O)N[C@@H](CC(C)C)C(=O)N[C@@H](CC(C)C)C(=O)N[C@@H](CO)C(=O)N[C@@H](C)C(N)=O)C(C)C)C(=O)O) [Compound X, acylated glucagon analogue, glucagon-GLP-1 dual agonist] | significant decrease | –
Insulin detemir [Levemir] | significant increase | -2.1 ± 1.6
Insulin glargine [Lantus] | significant increase | -9.6 ± 1.9
